The source of these data is patent US11993598B2, “Compounds for inhibiting EGFR kinase, preparation methods and uses thereof” (WIGEN BIOMEDICINE TECHNOLOGY (SHANGHAI) CO., LTD., priority 2019, dated 2024).

For orientation: IC50 means the concentration needed to halve the response being measured.

The target of series [1] is Ba/F3_EGFR D770_N771insSVD (Homo sapiens, UniProt P00533, DUP768-770, cells depend on it). Nature of the series: Cell proliferation assay (MTT). Type of series: cell-based. The following applies: three days, read-out: Ba/F3_EGFR D770_N771insSVD IC50. On the procedure: (§1) A431 cells, H1975 and Ba/F3 cells expressing various mutant EGFR were harvested from exponential phase cultures and seeded in 96-well plates at a cell density of 3000 per well for A431 and H1975, and 10000 per well for Ba/F3 cells. After overnight attachment, compounds were 3-fold serially diluted and applied to cells at 30 μM, 10 μM, 3 μM, 1 μM, 0.3 μM, […], 0.03 μM and 0.01 μM with triplicates, and incubated for three days. 20 μL of 5 mg/mL MTT was added afterwards followed by the further addition of 50 μL 10% SDS together with 5% isobutyl alcohol in 0.01 mol/L HCl. The plates were incubated overnight. Absorbance (A) at a wavelength of 570 nm was quantified. Percentage of inhibition was used for the calculation of IC50 based on the bliss method.
Chain of Ba/F3_EGFR D770_N771insSVD (P00533 with tags, fused parts or gaps DUP768-770): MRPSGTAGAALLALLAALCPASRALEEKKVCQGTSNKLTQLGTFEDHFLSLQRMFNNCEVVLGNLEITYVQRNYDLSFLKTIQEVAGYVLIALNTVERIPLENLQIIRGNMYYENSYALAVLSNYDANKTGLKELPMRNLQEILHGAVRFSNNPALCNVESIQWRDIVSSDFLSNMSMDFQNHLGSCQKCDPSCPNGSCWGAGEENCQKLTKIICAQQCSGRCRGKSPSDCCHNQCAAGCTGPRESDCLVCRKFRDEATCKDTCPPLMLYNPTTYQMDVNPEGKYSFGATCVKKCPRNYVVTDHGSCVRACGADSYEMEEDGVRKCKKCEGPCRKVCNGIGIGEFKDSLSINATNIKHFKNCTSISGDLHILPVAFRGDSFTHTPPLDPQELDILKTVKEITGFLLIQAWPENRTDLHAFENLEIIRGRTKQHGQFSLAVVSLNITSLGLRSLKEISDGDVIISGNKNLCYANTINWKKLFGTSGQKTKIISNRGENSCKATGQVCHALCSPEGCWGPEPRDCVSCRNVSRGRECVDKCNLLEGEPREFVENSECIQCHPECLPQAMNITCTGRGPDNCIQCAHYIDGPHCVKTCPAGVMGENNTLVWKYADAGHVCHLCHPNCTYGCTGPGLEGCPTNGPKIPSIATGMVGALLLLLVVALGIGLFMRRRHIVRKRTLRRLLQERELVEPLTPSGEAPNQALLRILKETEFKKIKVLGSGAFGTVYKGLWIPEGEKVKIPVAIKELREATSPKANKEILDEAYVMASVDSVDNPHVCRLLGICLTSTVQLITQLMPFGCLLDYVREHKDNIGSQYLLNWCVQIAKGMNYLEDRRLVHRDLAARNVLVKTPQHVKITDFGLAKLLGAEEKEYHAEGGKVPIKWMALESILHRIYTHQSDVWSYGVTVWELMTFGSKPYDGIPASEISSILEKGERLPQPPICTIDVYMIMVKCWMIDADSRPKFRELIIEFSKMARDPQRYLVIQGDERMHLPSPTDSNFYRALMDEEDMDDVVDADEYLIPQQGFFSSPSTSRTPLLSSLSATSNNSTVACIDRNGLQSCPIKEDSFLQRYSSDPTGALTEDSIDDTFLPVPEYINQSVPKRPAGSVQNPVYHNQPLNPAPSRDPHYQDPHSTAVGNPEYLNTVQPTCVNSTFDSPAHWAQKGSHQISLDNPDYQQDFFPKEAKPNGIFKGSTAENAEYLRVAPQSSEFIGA

The target in series [2] is Ba/F3_EGFR V769_D770insASV (Homo sapiens, UniProt P00533, DUP767-769, cells depend on it). Nature of the series: Cell proliferation assay (MTT). Type of series: cell-based. The following applies: three days, read-out: Ba/F3_EGFR V769_D770insASV IC50. On the procedure: as §1
Chain of Ba/F3_EGFR V769_D770insASV (P00533 with tags, fused parts or gaps DUP767-769): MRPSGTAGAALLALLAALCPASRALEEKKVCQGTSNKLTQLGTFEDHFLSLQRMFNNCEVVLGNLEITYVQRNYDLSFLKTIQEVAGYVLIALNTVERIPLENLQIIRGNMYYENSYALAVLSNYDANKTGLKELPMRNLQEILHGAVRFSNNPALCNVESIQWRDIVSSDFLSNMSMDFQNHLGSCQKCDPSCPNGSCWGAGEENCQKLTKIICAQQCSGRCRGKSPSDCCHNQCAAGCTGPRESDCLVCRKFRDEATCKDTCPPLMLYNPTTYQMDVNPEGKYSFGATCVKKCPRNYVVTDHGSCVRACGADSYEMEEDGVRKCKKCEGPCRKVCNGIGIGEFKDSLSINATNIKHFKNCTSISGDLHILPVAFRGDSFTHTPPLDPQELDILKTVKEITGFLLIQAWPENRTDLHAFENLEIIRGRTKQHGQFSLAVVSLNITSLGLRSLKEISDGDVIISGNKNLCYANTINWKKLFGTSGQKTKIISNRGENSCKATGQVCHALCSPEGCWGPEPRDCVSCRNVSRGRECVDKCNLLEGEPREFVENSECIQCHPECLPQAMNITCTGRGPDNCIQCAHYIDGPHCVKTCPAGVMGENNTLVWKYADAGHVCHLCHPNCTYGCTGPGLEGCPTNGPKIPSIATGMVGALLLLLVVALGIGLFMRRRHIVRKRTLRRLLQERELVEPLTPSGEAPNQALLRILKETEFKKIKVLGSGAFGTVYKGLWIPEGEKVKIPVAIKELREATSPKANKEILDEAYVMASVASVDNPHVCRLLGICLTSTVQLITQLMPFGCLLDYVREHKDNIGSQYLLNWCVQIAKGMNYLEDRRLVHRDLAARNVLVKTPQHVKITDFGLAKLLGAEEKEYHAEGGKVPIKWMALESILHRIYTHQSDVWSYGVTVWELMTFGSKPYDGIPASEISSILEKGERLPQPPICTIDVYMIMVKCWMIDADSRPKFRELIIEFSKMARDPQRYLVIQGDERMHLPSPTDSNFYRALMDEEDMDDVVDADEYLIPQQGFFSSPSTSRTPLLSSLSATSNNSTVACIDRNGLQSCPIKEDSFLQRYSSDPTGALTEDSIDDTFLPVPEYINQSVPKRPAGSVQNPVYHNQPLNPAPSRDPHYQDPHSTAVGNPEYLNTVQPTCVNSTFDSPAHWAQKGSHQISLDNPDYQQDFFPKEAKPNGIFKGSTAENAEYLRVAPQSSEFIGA
The test system of series [3] is A431 (wild type EGFR, skin cancer). The experiment in a line: Cell proliferation assay (MTT). The note with it: Homo sapiens, A-431, 72 h, three days. Format: cell-based. On the procedure:
as §1

The subject of series [4] is H1975 (EGFR L858R/T790M, NSCLC). Nature of the series: Cell proliferation assay (MTT). Format: cell-based. The note with it: Homo sapiens, NCI-H1975, 72 h, three days. As for the experimental part:
as §1

The subject of the next series is LU-01-0493. Nature of the series: Patient derived xenograft (PDX) mouse model. Format: in vivo, nude mice. The note with it: LU-01-0493, 0.5 mg/kg poziotinib. As for the experimental part:
(§2) Assay 3. In vivo studies in cell line-derived (CDX) and patient derived xenografts (PDX) mouse models
(§3) Cells (H1975) or tissue pieces (LU0493 and LU0426) were implanted subcutaneously into the left armpit of nude mice. When the average tumor volume reached 100-150 mm^3, mice were randomized by tumor volume and treated with vehicle, compound 1 or poziotinib respectively. Tumor volume and body weight were measured twice per week. Mice were sacrificed on day 21 or day 28, and tumor volume and terminal body weight were recorded. The relative tumor volume, percent of treatment/control values and tumor growth inhibition were calculated and statistics was performed.
(§4) Terminal body weight changes were calculated as percentage of body changes from day 1 to day 21.
Background: A xenograft is tissue or cells of one species grown in another, often human tumour cells in immunodeficient mice.

In another series the test system is LU-01-0426. The experiment in a line: Patient derived xenograft (PDX) mouse model. Format: in vivo, nude mice. The following applies: LU-01-0426, 0.5 mg/kg poziotinib. On the procedure:
as §2, §3, §4

Another series deals with LU-0387. Nature of the series: Xenograft mouse model LU-0387. Format: in vivo, nude mice. The note with it: LU-0387, 0.5 mg/kg poziotinib.
In the next series the target is EGFR-WT (Homo sapiens, UniProt P00533). The experiment in a line: Wild-type EGFR biochemical activity assay (HTRF). As for the experimental part:
(§5) Assay 1: Wild-type EGFR, HER2 and HER4, and mutant EGFR biochemical activity assay
(§6) 10 nL of Serially diluted compounds were transferred to assay plates using the labcyte Echo 550, and 5 uL of 2× enzymes in assay buffer were subsequently dispensed. The assay plate was covered with an adhesive plate seal, and briefly spinned for 30 s at 1000 g. 5 uL of 2× TK-substrate-biotin and ATP mixed in assay buffer were added.
(§7) IC50 was calculated and analyzed using a 4 parametric logistic model.
For orientation: TR-FRET usually uses a lanthanide donor and a delayed reading to cut background.

The target of another series is HER2 (Homo sapiens, UniProt P04626). Nature of the series: HER2 biochemical activity assay (HTRF). As for the experimental part:
as §5, §6, §7

The target of the next series is EGFR L792F (Homo sapiens, UniProt P00533, L792F). The experiment in a line: Mutant EGFR biochemical activity assay (HTRF). As for the experimental part: as §5, §6, §7
The next series deals with EGFR T790M (Homo sapiens, UniProt P00533, T790M). The experiment in a line: Mutant EGFR biochemical activity assay (HTRF). As for the experimental part:
as §5, §6, §7

A further series concerns the target EGFR D770-N771insNPG (Homo sapiens, UniProt P00533, INS770NPG). The experiment in a line: Mutant EGFR biochemical activity assay (HTRF). On the procedure: as §5, §6, §7
Another series addresses EGFR D770GY (Homo sapiens, UniProt P00533, D770Y/INS769G). The experiment in a line: Mutant EGFR biochemical activity assay (HTRF). On the procedure: as §5, §6, §7
A further series deals with EGFR L792H (Homo sapiens, UniProt P00533, L792H). The experiment in a line: Mutant EGFR biochemical activity assay (HTRF). On the procedure: as §5, §6, §7
The next series addresses EGFR T790M/L858R (Homo sapiens, UniProt P00533, L858R/T790M). Nature of the series: Mutant EGFR biochemical activity assay (HTRF). As for the experimental part: as §5, §6, §7
A further series addresses EGFR Del19 (Homo sapiens, UniProt P00533). Nature of the series: Mutant EGFR biochemical activity assay (HTRF). On the procedure: as §5, §6, §7
Series [5] concerns the target EGFR D770_N771insNPG T790M (Homo sapiens, UniProt P00533, INS770NPG/T790M). Nature of the series: Mutant EGFR biochemical activity assay (HTRF). The note with it: read-out: IC50 (nM) EGFR D770_N771 insNPG T790M. As for the experimental part: as §5, §6, §7
A further series addresses EGFR A763_Y764insFHEA (Homo sapiens, UniProt P00533, INS763FHEA). The experiment in a line: Mutant EGFR biochemical activity assay (HTRF). The note with it: read-out: IC50 (nM) EGFR A763_Y764 insFHEA. As for the experimental part: as §5, §6, §7
Another series deals with HER4 (Homo sapiens, UniProt Q15303). The experiment in a line: HER4 biochemical activity assay (HTRF). As for the experimental part:
as §5, §6, §7

Chain of EGFR Del19 (P00533 with tags, fused parts or gaps DEL746-750): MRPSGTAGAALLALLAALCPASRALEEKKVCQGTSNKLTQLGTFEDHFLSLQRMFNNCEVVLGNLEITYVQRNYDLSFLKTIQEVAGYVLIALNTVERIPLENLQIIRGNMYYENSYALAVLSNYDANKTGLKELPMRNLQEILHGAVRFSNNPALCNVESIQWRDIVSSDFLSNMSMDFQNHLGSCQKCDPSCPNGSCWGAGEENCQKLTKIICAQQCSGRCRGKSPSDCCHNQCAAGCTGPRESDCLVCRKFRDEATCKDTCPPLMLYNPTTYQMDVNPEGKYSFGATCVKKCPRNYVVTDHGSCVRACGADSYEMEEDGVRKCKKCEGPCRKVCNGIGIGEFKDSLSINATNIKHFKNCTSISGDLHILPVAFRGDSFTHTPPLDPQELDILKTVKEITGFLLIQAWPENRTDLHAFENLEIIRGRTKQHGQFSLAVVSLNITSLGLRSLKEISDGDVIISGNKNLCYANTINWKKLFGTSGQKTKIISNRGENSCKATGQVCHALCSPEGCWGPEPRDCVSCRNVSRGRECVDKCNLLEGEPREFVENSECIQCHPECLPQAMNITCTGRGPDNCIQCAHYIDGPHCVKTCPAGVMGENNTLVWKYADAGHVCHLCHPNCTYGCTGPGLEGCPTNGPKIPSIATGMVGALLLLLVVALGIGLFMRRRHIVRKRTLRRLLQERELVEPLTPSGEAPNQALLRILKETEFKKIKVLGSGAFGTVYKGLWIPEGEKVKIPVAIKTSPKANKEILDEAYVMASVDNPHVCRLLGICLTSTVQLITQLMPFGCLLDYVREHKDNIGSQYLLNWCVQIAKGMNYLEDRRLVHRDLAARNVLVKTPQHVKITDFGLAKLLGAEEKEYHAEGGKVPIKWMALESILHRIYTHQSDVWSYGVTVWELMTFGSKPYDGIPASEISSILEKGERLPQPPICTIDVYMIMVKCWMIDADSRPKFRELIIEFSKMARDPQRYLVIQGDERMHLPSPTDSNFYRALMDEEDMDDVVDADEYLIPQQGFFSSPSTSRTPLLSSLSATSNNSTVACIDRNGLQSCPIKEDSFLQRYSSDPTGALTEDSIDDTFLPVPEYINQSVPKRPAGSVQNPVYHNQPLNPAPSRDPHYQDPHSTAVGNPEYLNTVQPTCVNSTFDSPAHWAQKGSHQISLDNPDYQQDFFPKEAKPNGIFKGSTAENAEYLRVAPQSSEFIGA
Chain of EGFR A763_Y764insFHEA (P00533 with tags, fused parts or gaps INS763FHEA limits assumed): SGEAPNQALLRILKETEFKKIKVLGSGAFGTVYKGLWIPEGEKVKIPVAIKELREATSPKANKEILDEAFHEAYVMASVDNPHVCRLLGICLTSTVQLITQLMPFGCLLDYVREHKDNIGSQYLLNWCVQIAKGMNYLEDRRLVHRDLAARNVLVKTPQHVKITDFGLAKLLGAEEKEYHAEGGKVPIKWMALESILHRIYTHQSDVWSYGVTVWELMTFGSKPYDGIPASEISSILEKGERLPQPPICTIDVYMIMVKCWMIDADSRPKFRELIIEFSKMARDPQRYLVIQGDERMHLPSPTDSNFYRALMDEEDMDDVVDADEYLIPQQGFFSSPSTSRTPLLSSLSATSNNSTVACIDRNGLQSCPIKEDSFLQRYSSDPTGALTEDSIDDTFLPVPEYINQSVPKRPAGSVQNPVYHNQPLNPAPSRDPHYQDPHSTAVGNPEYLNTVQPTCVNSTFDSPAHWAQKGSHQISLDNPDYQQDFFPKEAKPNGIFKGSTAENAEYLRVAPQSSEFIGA
Chain of EGFR D770-N771insNPG (P00533 with tags, fused parts or gaps INS770NPG limits assumed): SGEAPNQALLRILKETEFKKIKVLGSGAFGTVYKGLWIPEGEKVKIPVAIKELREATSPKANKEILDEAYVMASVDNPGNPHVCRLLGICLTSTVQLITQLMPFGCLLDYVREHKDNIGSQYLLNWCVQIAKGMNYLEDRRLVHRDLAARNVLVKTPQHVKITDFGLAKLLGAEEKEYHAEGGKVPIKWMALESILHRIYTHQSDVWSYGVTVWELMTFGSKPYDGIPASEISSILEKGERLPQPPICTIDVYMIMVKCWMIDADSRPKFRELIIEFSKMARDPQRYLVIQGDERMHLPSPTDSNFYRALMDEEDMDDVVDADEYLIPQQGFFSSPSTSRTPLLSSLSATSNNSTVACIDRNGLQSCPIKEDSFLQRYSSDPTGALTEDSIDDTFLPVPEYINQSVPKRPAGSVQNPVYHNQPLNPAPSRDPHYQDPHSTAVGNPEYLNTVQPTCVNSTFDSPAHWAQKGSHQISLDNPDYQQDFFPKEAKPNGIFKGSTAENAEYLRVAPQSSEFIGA

On to `[2H]C([2H])([2H])Oc1cc(N(C)CCN(C)C)c(NC(=O)C=C)cc1Nc1nccc(-n2c(=O)n3c4c(cc(F)cc42)CCC3)n1` [Compound 42, N-(2-((2-(dimethylamino)ethyl)(methyl)amino)-5-((4-(8-fluoro-2-oxo-5,6-dihydro-4H-imidazo[4,5,1-ij]quinolin-1(2H)-yl)pyrimidin-2-yl)amino)-4-(methoxy-d3)phenyl)acrylamide], for which the GI50 in [1] stood at 5.61 nM; in series [2], 13.9 nM. Also, the figures for the IC50 in series [3] and in [4] were 301 nM and 14.6 nM, respectively.

Take `C=CC(=O)Nc1cc(Nc2nccc(-n3c(=O)n4c5c(cc(F)cc53)CCC4)n2)c(OCC(F)(F)F)nc1N(C)CCN(C)C` [Compound 5, N-(2-((2-(dimethylamino)ethyl)(methyl)amino)-5-((4-(8-fluoro-2-oxo-5,6-dihydro-4H-imidazo[4,5,1-ij]quinolin-1(2H)-yl)pyrimidin-2-yl)amino)-6-(2,2,2-trifluoroethoxy)pyridin-3-yl)acrylamide]: the GI50 amounted to 5.07 nM in series [1] and 14.9 nM in [2]. Moreover, the IC50 in series [3] came to 154 nM; in series [4] it was 15.8 nM.

Take `C=CC(=O)N1CCC(Oc2cc3c(Nc4ccc(Cl)c(Cl)c4F)ncnc3cc2OC)CC1` [poziotinib, reference compound]: the “TGI (%)” value in the series on LU-01-0493 is recorded as 56.8%; in the series on LU-01-0426, 91.3%; in the series on LU-0387 it was 74.49%. Besides, the “Terminal body weight changes (%)” value in the series on LU-01-0493 (day 1 to day 21) is reported as −12.4%; with LU-01-0426 (day 1 to day 21), −7.4%; in the series on LU-0387 (day 1 to day 21), 0%.

In the case of `C=CC(=O)Nc1cc(Nc2nccc(-n3c(=O)n4c5c(cc(F)cc53)CCC4)n2)c(OC)cc1N(C)CCN1CCC1` [Compound 25, N-(2-((2-(azetidin-1-yl)ethyl)(methyl)amino)-5-((4-(8-fluoro-2-oxo-5,6-dihydro-4H-imidazo[4,5,1-ij]quinolin-1(2H)-yl)pyrimidin-2-yl)amino)-4-methoxyphenyl)acrylamide], the GI50 in series [1] was 12.4 nM; in series [2], 23.4 nM. For the same molecule, the IC50 came out at 386 nM in series [3] and 25.4 nM in [4].

For the molecule `C=CC(=O)Nc1cc(Nc2nccc(-c3cn(C)c4ccccc34)n2)c(OC)cc1N(C)CCN(C)C` [AZD9291, reference compound], it took […] to reach half-maximal inhibition in series [3] (IC50).

Take `[2H]C([2H])([2H])Oc1cc(N(C)CCN(C)C([2H])([2H])[2H])c(NC(=O)C=C)cc1Nc1nccc(-n2c(=O)n3c4c(cc(F)cc42)CCC3)n1` [Compound 43, N-(5-((4-(8-fluoro-2-oxo-5,6-dihydro-4H-imidazo[4,5,1-ij]quinolin-1(2H)-yl)pyrimidin-2-yl)amino)-4-(methoxy-d3)-2-(methyl(2-(methyl(methyl-d3)amino)ethyl)amino)phenyl) acrylamide]: the GI50 was determined as 6.65 nM in series [1] and 16.6 nM in series [2]. The results for the IC50 in series [3] and in series [4] were 254 nM and 19.8 nM, respectively.

For the molecule `[2H]C([2H])([2H])N(C)CCN(C)c1cc(OC)c(Nc2nccc(-n3c(=O)n4c5c(cc(F)cc53)CCC4)n2)cc1NC(=O)C=C` [Compound 28, N-(5-((4-(8-fluoro-2-oxo-5,6-dihydro-4H-imidazo[4,5,1-ij]quinolin-1(2H)-yl)pyrimidin-2-yl)amino)-4-methoxy-2-(methyl(2-(methyl(methyl-d3)amino)ethyl)amino)phenyl) acrylamide], the GI50 in series [1] is 5.13 nM; in series [2], 14.3 nM. Also, the concentration for half-maximal inhibition (IC50) is 256 nM in series [3] and 32.2 nM in series [4].

With `C=CC(=O)Nc1cc(Nc2nccc(-n3c(=O)n4c5c(cccc53)CCC4)n2)c(OC)cc1N(C)CCN(C)C` [Compound 2, N-(2-((2-(dimethylamino)ethyl)(methyl)amino)-4-methoxy-5-((4-(2-oxo-5,6-dihydro-4H-imidazo[4,5,1-ij]quinolin-1(2H)-yl)pyrimidin-2-yl)amino)phenyl)acrylamide], the IC50 at EGFR-WT came to 1.23 nM; at HER2, 47 nM; in series [3], 71.1 nM; in [4] it was 23 nM; against EGFR L792F, 1.65 nM; against EGFR T790M it was 0.0509 nM. For the same molecule, the IC50 against EGFR D770-N771insNPG came to 0.0815 nM; on EGFR D770GY, 0.276 nM; at EGFR L792H, 46.9 nM; against EGFR T790M/L858R, 0.0724 nM; on EGFR Del19, 0.107 nM; in series [5] it was 0.0567 nM. For the same molecule, the IC50 on EGFR A763_Y764insFHEA was determined as 0.299 nM; against HER4, 1.35 nM. Besides, the GI50 in [1] was 9.15 nM; in [2], 23.8 nM.

Take `C=CC(=O)Nc1cc(Nc2nccc(-n3c(=O)n4c5c(cccc53)CCC4)n2)c(OCC(F)(F)F)nc1N(C)CCN(C)C` [Compound 6, N-(2-((2-(dimethylamino)ethyl)(methyl)amino)-5-((4-(2-oxo-5,6-dihydro-4H-imidazo[4,5,1-ij]quinolin-1(2H)-yl)pyrimidin-2-yl)amino)-6-(2,2,2-trifluoroethoxy)pyridin-3-yl)acrylamide]: the IC50 against EGFR-WT is 0.451 nM; on HER2, 25.1 nM; in series [3], 140 nM; in series [4] it was 14.8 nM; against EGFR L792F, 4.09 nM; at EGFR T790M, 0.0656 nM. Moreover, the IC50 is 0.0688 nM at EGFR D770-N771insNPG; 0.0489 nM against EGFR D770GY; above 100 nM against EGFR L792H; 0.0865 nM against EGFR T790M/L858R; 0.14 nM at EGFR Del19; 0.0834 nM in series [5]. The IC50 came to 0.149 nM at EGFR A763_Y764insFHEA and 0.725 nM at HER4. The GI50 in series [1] came to 3.47 nM; in series [2] it was 13.3 nM.

In the case of `C=CC(=O)Nc1cc(Nc2nccc(-n3c(=O)n4c5c(cc(F)cc53)CCC4)n2)c(OC)nc1N(C)CCN(C)C` [Compound 3, N-(2-((2-(dimethylamino)ethyl)(methyl)amino)-5-((4-(8-fluoro-2-oxo-5,6-dihydro-4H-imidazo[4,5,1-ij]quinolin-1(2H)-yl)pyrimidin-2-yl)amino)-6-methoxypyridin-3-yl)acrylamide], the GI50 was determined as 3.18 nM in [1] and 13.9 nM in series [2]. In addition, the IC50 in series [3] is 389 nM; in [4], 16 nM.

For the molecule `[2H]C([2H])([2H])N(CCN(C)c1cc(OC)c(Nc2nccc(-n3c(=O)n4c5c(cc(F)cc53)CCC4)n2)cc1NC(=O)C=C)C([2H])([2H])[2H]` [Compound 29, N-(2-((2-(bis(methyl-d3)amino)ethyl)(methyl)amino)-5-((4-(8-fluoro-2-oxo-5,6-dihydro-4H-imidazo[4,5,1-ij]quinolin-1(2H)-yl)pyrimidin-2-yl)amino)-4-methoxyphenyl)acrylamide], the GI50 was 9.03 nM in [1] and 23.4 nM in series [2]. The IC50 stood at 188 nM in series [3] and 21 nM in series [4].
